The test deals with T1, Bcl-2 protein (Recombinant Human Bcl-2 Protein) (Homo sapiens, UniProt P10415).
T1 construct: purchased Novus Biologicals NBP2-34889
In words: AS-MS evaluation of binding of the Example 4 mixture library (1200 compounds/well) to Bcl-2, ASMS ratio (%). The note with it: AS-MS, Example 4 mixture library; for ASMS ratio (%) n = 1: Bcl-2, replicate n = 1; for ASMS ratio (%) n = 2: Bcl-2, replicate n = 2. In a few lines: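 ASMS ratio (%) derived from reverse-phase LC/MS of three samples: Bcl-2 (20 μM) incubation after SEC, protein-free standard without SEC, and protein-free blank after SEC. Compounds were pooled at 1200/well, 20 nM each, incubated 1 h, 23 °C, dark, in Tris-HCl pH 7.4 buffer with Tween-20 and DTT.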

From patent US20250154686A1, “COMPOUND LIBRARY” (CHUGAI SEIYAKU KABUSHIKI KAISHA, priority 2021, published 2025) come the findings set out here.

T1 sequence (P10415 whole entry): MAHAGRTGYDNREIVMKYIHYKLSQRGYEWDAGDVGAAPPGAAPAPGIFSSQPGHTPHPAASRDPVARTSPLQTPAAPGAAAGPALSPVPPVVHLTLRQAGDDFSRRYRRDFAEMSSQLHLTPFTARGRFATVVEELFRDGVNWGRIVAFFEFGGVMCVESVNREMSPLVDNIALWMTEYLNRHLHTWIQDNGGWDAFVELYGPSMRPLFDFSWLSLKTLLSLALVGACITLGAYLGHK

Consider `CCOc1cncc(C#Cc2ccccc2C(=O)N2CCN(c3ccc(C(=O)NS(=O)(=O)c4ccc(NCCSc5ccccc5)c(C(F)(F)F)c4)cc3)CC2)c1` [Compound B2R030-01, 4-[4-[2-[2-(5-Ethoxypyridin-3-yl)ethynyl]benzoyl]piperazin-1-yl]-N-[4-(2-phenylsulfanylethylamino)-3-(trifluoromethyl)phenyl]sulfonylbenzamide], for which the “ASMS ratio (%) n = 1” value amounted to 0.0% and the “ASMS ratio (%) n = 2” value was found to be 4.8%.
Taken in the same sequence, the figures for `CCOc1cccc(C#Cc2cncc(C(=O)N3CCN(c4ccc(C(=O)NS(=O)(=O)c5ccc(NCCSc6ccccc6)c(C(F)(F)F)c5)cc4)CC3)c2)c1` [Compound B2R031-01, 4-[4-[5-[2-(3-Ethoxyphenyl)ethynyl]pyridine-3-carbonyl]piperazin-1-yl]-N-[4-(2-phenylsulfanylethylamino)-3-(trifluoromethyl)phenyl]sulfonylbenzamide] were 0.0% and 4.8%.
For `CCOc1cncc(C#Cc2cncc(C(=O)N3CCN(c4ccc(C(=O)NS(=O)(=O)c5ccc(NCCSc6ccccc6)c(C(F)(F)F)c5)cc4)CC3)c2)c1` [Compound B2R032-01, 4-[4-[5-[2-(5-Ethoxypyridin-3-yl)ethynyl]pyridine-3-carbonyl]piperazin-1-yl]-N-[4-(2-phenylsulfanylethylamino)-3-(trifluoromethyl)phenyl]sulfonylbenzamide], the “ASMS ratio (%) n = 1” value was found to be 6.4% and the “ASMS ratio (%) n = 2” value came to 0.0%.
Taken in the same sequence, the figures for `CCOc1cccc(-c2ccccc2CCC(=O)N2CCN(c3ccc(C(=O)NS(=O)(=O)c4ccc(NCCSc5ccccc5)c(C(F)(F)F)c4)cc3)CC2)c1` [Compound B2R033-01, 4-[4-[3-[2-(3-Ethoxyphenyl)phenyl]propanoyl]piperazin-1-yl]-N-[4-(2-phenylsulfanylethylamino)-3-(trifluoromethyl)phenyl]sulfonylbenzamide] were 3.6% and −6.6%.
Taken in the same sequence, the figures for `CCOc1cncc(-c2ccccc2CCC(=O)N2CCN(c3ccc(C(=O)NS(=O)(=O)c4ccc(NCCSc5ccccc5)c(C(F)(F)F)c4)cc3)CC2)c1` [Compound B2R034-01, 4-[4-[3-[2-(5-Ethoxypyridin-3-yl)phenyl]propanoyl]piperazin-1-yl]-N-[4-(2-phenylsulfanylethylamino)-3-(trifluoromethyl)phenyl]sulfonylbenzamide] were 0.1% and −1.3%.
With `CCOc1cccc(-c2ccc(C(=O)N3CCN(c4ccc(C(=O)NS(=O)(=O)c5ccc(NCCSc6ccccc6)c(C(F)(F)F)c5)cc4)CC3)c3ccccc23)c1` [Compound B2R035-01], the “ASMS ratio (%) n = 1” value was 8.3% and the “ASMS ratio (%) n = 2” value turned out to be 0.9%.
Taken in the same sequence, the figures for `CCOc1cncc(-c2ccc(C(=O)N3CCN(c4ccc(C(=O)NS(=O)(=O)c5ccc(NCCSc6ccccc6)c(C(F)(F)F)c5)cc4)CC3)c3ccccc23)c1` [Compound B2R036-01, 4-[4-[4-(5-Ethoxypyridin-3-yl)naphthalene-1-carbonyl]piperazin-1-yl]-N-[4-(2-phenylsulfanylethylamino)-3-(trifluoromethyl)phenyl]sulfonylbenzamide] were 3.2% and −0.8%.
Taken in the same sequence, the figures for `CCOc1cccc(-c2cc(C(=O)N3CCN(c4ccc(C(=O)NS(=O)(=O)c5ccc(NCCSc6ccccc6)c(C(F)(F)F)c5)cc4)CC3)cc(C(C)(C)C)c2)c1` [Compound B2R037-01, 4-[4-[3-tert-Butyl-5-(3-ethoxyphenyl)benzoyl]piperazin-1-yl]-N-[4-(2-phenylsulfanylethylamino)-3-(trifluoromethyl)phenyl]sulfonylbenzamide] were 6.3% and −7.0%.
`CCOc1cncc(-c2cc(C(=O)N3CCN(c4ccc(C(=O)NS(=O)(=O)c5ccc(NCCSc6ccccc6)c(C(F)(F)F)c5)cc4)CC3)cc(C(C)(C)C)c2)c1` [Compound B2R038-01, 4-[4-[3-tert-Butyl-5-(5-ethoxypyridin-3-yl)benzoyl]piperazin-1-yl]-N-[4-(2-phenylsulfanylethylamino)-3-(trifluoromethyl)phenyl]sulfonylbenzamide]: the “ASMS ratio (%) n = 1” value is recorded as 7.1% and the “ASMS ratio (%) n = 2” value is given as −6.0%.
As to `CCOc1cccc(-c2cc(C(=O)N3CCN(c4ccc(C(=O)NS(=O)(=O)c5ccc(NCCSc6ccccc6)c(C(F)(F)F)c5)cc4)CC3)cc(C(F)(F)F)c2)c1` [Compound B2R039-01, 4-[4-[3-(3-Ethoxyphenyl)-5-(trifluoromethyl)benzoyl]piperazin-1-yl]-N-[4-(2-phenylsulfanylethylamino)-3-(trifluoromethyl)phenyl]sulfonylbenzamide], the “ASMS ratio (%) n = 1” value was 9.7% and the “ASMS ratio (%) n = 2” value was −4.8%.
Taken in the same sequence, the figures for `CCOc1cncc(-c2cc(C(=O)N3CCN(c4ccc(C(=O)NS(=O)(=O)c5ccc(NCCSc6ccccc6)c(C(F)(F)F)c5)cc4)CC3)cc(C(F)(F)F)c2)c1` [Compound B2R040-01, 4-[4-[3-(5-Ethoxypyridin-3-yl)-5-(trifluoromethyl)benzoyl]piperazin-1-yl]-N-[4-(2-phenylsulfanylethylamino)-3-(trifluoromethyl)phenyl]sulfonylbenzamide] were 2.6% and 0.2%.
On to `CCOc1cccc(C#Cc2cc(C(=O)N3CCN(c4ccc(C(=O)NS(=O)(=O)c5ccc(NCCSc6ccccc6)c(C(F)(F)F)c5)cc4)CC3)cc(C(F)(F)F)c2)c1` [Compound B2R041-01, 4-[4-[3-[2-(3-Ethoxyphenyl)ethynyl]-5-(trifluoromethyl)benzoyl]piperazin-1-yl]-N-[4-(2-phenylsulfanylethylamino)-3-(trifluoromethyl)phenyl]sulfonylbenzamide], for which the “ASMS ratio (%) n = 1” value came to 18.0% and the “ASMS ratio (%) n = 2” value turned out to be 0.0%.
Taken in the same sequence, the figures for `CCOc1cncc(C#Cc2cc(C(=O)N3CCN(c4ccc(C(=O)NS(=O)(=O)c5ccc(NCCSc6ccccc6)c(C(F)(F)F)c5)cc4)CC3)cc(C(F)(F)F)c2)c1` [Compound B2R042-01, 4-[4-[3-[2-(5-Ethoxypyridin-3-yl)ethynyl]-5-(trifluoromethyl)benzoyl]piperazin-1-yl]-N-[4-(2-phenylsulfanylethylamino)-3-(trifluoromethyl)phenyl]sulfonylbenzamide] were 3.4% and 6.0%.
Taken in the same sequence, the figures for `CCOc1cccc(-c2cnn(-c3cc(C(=O)N4CCN(c5ccc(C(=O)NS(=O)(=O)c6ccc(NCCSc7ccccc7)c(C(F)(F)F)c6)cc5)CC4)cc(C(F)(F)F)c3)c2)c1` [Compound B2R043-01, 4-[4-[3-[4-(3-Ethoxyphenyl)pyrazol-1-yl]-5-(trifluoromethyl)benzoyl]piperazin-1-yl]-N-[4-(2-phenylsulfanylethylamino)-3-(trifluoromethyl)phenyl]sulfonylbenzamide] were 3.4% and −9.0%.
On to `CCOc1cncc(-c2cnn(-c3cc(C(=O)N4CCN(c5ccc(C(=O)NS(=O)(=O)c6ccc(NCCSc7ccccc7)c(C(F)(F)F)c6)cc5)CC4)cc(C(F)(F)F)c3)c2)c1` [Compound B2R044-01, 4-[4-[3-[4-(5-Ethoxypyridin-3-yl)pyrazol-1-yl]-5-(trifluoromethyl)benzoyl]piperazin-1-yl]-N-[4-(2-phenylsulfanylethylamino)-3-(trifluoromethyl)phenyl]sulfonylbenzamide], for which the “ASMS ratio (%) n = 1” value is −3.7% and the “ASMS ratio (%) n = 2” value is −4.1%.
Taken in the same sequence, the figures for `CCOc1cccc(-c2ccccc2CN2CCN(c3ccc(C(=O)NS(=O)(=O)c4ccc(NCCSc5ccccc5)c(C(F)(F)F)c4)cc3)CC2)c1` [Compound B2R045-01, 4-[4-[[2-(3-Ethoxyphenyl)phenyl]methyl]piperazin-1-yl]-N-[4-(2-phenylsulfanylethylamino)-3-(trifluoromethyl)phenyl]sulfonylbenzamide] were 4.8% and −3.4%.
Taken in the same sequence, the figures for `CCOc1cncc(-c2ccccc2CN2CCN(c3ccc(C(=O)NS(=O)(=O)c4ccc(NCCSc5ccccc5)c(C(F)(F)F)c4)cc3)CC2)c1` [Compound B2R046-01, 4-[4-[[2-(5-ethoxypyridin-3-yl)phenyl]methyl]piperazin-1-yl]-N-[4-(2-phenylsulfanylethylamino)-3-(trifluoromethyl)phenyl]sulfonylbenzamide] were −0.2% and 0.0%.
Taken in the same sequence, the figures for `CCOc1cccc(-c2ccc(CN3CCN(c4ccc(C(=O)NS(=O)(=O)c5ccc(NCCSc6ccccc6)c(C(F)(F)F)c5)cc4)CC3)cc2C)c1` [Compound B2R047-01, 4-[4-[[4-(3-Ethoxyphenyl)-3-methylphenyl]methyl]piperazin-1-yl]-N-[4-(2-phenylsulfanylethylamino)-3-(trifluoromethyl)phenyl]sulfonylbenzamide] were 6.6% and −7.8%.
In the case of `CCOc1cncc(-c2ccc(CN3CCN(c4ccc(C(=O)NS(=O)(=O)c5ccc(NCCSc6ccccc6)c(C(F)(F)F)c5)cc4)CC3)cc2C)c1` [Compound B2R048-01], the “ASMS ratio (%) n = 1” value worked out at 9.2% and the “ASMS ratio (%) n = 2” value is 7.5%.
Taken in the same sequence, the figures for `CCOc1cccc(-c2ccc(CN3CCN(c4ccc(C(=O)NS(=O)(=O)c5ccc(NCCSc6ccccc6)c(C(F)(F)F)c5)cc4)CC3)c(CC)c2)c1` [Compound B2R049-01, 4-[4-[[4-(3-Ethoxyphenyl)-2-ethylphenyl]methyl]piperazin-1-yl]-N-[4-(2-phenylsulfanylethylamino)-3-(trifluoromethyl)phenyl]sulfonylbenzamide] were 7.5% and −5.5%.
Taken in the same sequence, the figures for `CCOc1cncc(-c2ccc(CN3CCN(c4ccc(C(=O)NS(=O)(=O)c5ccc(NCCSc6ccccc6)c(C(F)(F)F)c5)cc4)CC3)c(CC)c2)c1` [Compound B2R050-01] were 0.0% and 0.0%.
